The text below walks through data of US20120065165A1, “COMPOSITIONS AND METHODS OF TREATING ENDOTHELIAL DISORDERS” (ARGINETIX, INC, priority 2008, published 2012).

The subject of data set [1] is old rat aortic segments. The data set can be described thus: NO production in aortic rings (slope of DAF fluorescence). In kind it is cell-based. The following applies: old/aged rat aorta. An excerpt: ABH improves endothelial function by inhibiting arginase and consequently increasing NO production (by increasing L-arginine availability to eNOS) and decreasing levels of ROS (by preventing eNOS uncoupling). […] Aortic rings were dissected and pinned down, endothelial side up, on a silastic coated culture dish, and then exposed to either the NO-sensitive dye DAF, or the O2-sensitive dye DHE. Since the interaction of NO or ROS with its specific dye is cumulative, the rate of production of each species is proportional to the slope of the fluorescence emitted from the dye as measured using epifluorescence microscopy. […] SNP endothelial-independent NO donor was included as a control (Santhanam et al 2007).

The subject of data set [2] is arginase. The conditions noted are these: internal anal sphincter; cited from earlier work.
Data set [3] relates to lambs with chemically induced PAH. The following applies: cited from earlier work.
For data set [4] the following is noted: in vivo; cited from earlier work.
Data set [5] has as its system arginase. The following applies: cited from earlier work.
Data set [6] concerns hypoxia-induced pulmonary hypertension. The conditions noted are these: cited from earlier work.
For data set [7], the system named is patients with PAH. The conditions noted are these: oral administration; cited from earlier work.
The test system of data set [8] is rat aortic tissues. The data set can be described thus: cGMP levels in aortic rings of old rats incubated with sildenafil and ABH (cGMP EIA). In kind it is cell-based. The following applies: ABH 0 nM. The protocol:
The source of tissue was old (22 to 24 months) male Fischer 344 rats purchased from National Institute for Aging (NIA). The rats were anesthetized in an isoflurane chamber and euthanized. The entire length of the aorta (thoracic, arch, abdominal) were dissected out and cleaned free of connective tissue. These aorta were then sectioned into ˜3 mm long rings. Samples were collected from 2 rats and pooled. […] Rings were incubated in varying concentrations of sildenafil (0-2000 nM) and ABH (0-500 nM) prepared in 200 μL Krebs buffer for 10 min at 37° C. The rings were then snap frozen in liquid nitrogen following treatment. The next day, samples were homogenized in 200 μL 6% TCA buffer (prepared by adding TCA to DI water) at 4° C. for extraction of cyclic nucleotides. The samples were then centrifuged at 12,000 rpm for 5 min at 4° C. Protein pellets were re-dissolved in PBS to determine protein concentration, and supernatant was reserved for cGMP detection. […] ABH (MW 211.45): A stock solution of ABH at a concentration of 100 mM was prepared by dissolving 21.1 mg of ABH into 1 ml Krebs solution. This was used to prepare 5 ml of a 1 mM stock. 200 μL of the 1 mM solution were dispensed into column 12 of a 96-well plate. Six 2× dilutions were prepared in the plate. 200 μL Krebs were dispensed in column 5 to get a concentration range of 0-1000 nM (2× of final concentration). Sildenafil (MW 474.5): A stock solution of sildenafil at a concentartion of 100 mM was prepared by dissolving 47.4 mg of sildenafil into 1 ml Krebs solution; 5 ml of 2 mM stock was prepared from this. Row A received 200 μL of Krebs buffer (0 mM sildenafil), mixed well, and adjusted to a final volume of 200 μL. Next, 200 μL of the 2 mM sildenafil stock was dispensed into row H of the 96 well plate already containing the ABH dilutions ([…]). Six 2× dilutions were prepared from this to get the final concentration ranges for the two drugs. cGMP levels were determined with a cGMP kit (Amersham cGMP Enzyme immunoassay Biotrak (EIA) System Cat #RPN226) and run in accordance with the manufacture's recommendations. The assay uses a competitive fluorescent immunoassay format to measure levels of cGMP. It combines the use of a peroxidase-labelled cGMP conjugate, a specific antiserum which can be immobilized on to pre-coated microplates, and a one-pot stabilized substrate solution. […] In the absence of cGMP most of the HRP conjugate is bound to the antibody and yields a high fluorescence. Increasing concentrations of cGMP competitively decreases the binding of the HRP conjugate, decreasing the measured fluorescence (HRP activity). […] The plate was then incubated for 2 hrs at room temperature with shaking after which it is washed and the fluorescent substrate is added. The plate was incubated for an additional 10 min and then read on a Molecular Devices Gemini EM plate reader set at Ex 530 nm, Em 590 nm (endpoint mode). The signal is reported to be stable for up to 24 hrs, but was generally read within 2 hrs. […] These values were calculated based on the resultant ratio of fluorescence reading of sample divided by fluorescense reading with no cGMP (pmols/mg). For each concentration combination of sildenafil and ABH administered to cells, absorbance (OD at 450 nm) was measured. From these values, the absorbance adjusted for non-specific binding (NSB) for each sample (OD-NSB(B)) was determined from the absorbance (B) divided by the absorbance without cGMP (Bo). Using this value and the standard curve for cGMP, the log (fmol) is found and, after adjusting for the quantity of protein, the pmols of cGMP/mg protein is calculated.

Data set [9] deals with patients with PAH. The following applies: three times daily; cited from earlier work.
Data set [10] concerns PDE1. The following applies: pulmonary vascular tissue; cited from earlier work.

The structures appear in SMILES notation. Read-outs that look alike come from different tables or passages of the source.

On to `N[C@@H](CSCCB(O)O)C(=O)O` [BEC, S-(2-Boronoethyl)-L-cysteine], for which the “NO production (slope of the DAF fluorescence)” value in data set [1] is “augments NO production”.
As to `N=C(NO)NCCC[C@H](N)C(=O)O` [L-HO-Arg, Nω-hydroxy-L-arginine], in data set [2], the “NANC relaxation suppressed by excess arginase” value is on record as “restored”.
In the case of `CCCOc1ccccc1-c1nc2nn[nH]c2c(=O)[nH]1` [Zaprinast], in [3] (lambs with chemically induced PAH), the “pulmonary vasodilation induced by inhaled NO” value was “potentiates and markedly prolongs”.
Regarding `N=C(NO)NCC[C@H](N)C(=O)O` [nor-NOHA, N^ω-hydroxy-nor-L-arginine], the bioavailability entry in data set [4] is “poor bioavailability”. For the same compound, in data set [5], the “in vivo inhibition of serum arginase” value is on record as “inhibition of serum arginase”.
Consider `CCCc1nn(C)c2c(=O)[nH]c(-c3cc(S(=O)(=O)N4CCN(C)CC4)ccc3OCC)nc12` [sildenafil], for which the hypoxia-induced pulmonary hypertension entry in data set [6] (mice lacking NOS3 (eNOS)) is reported as “little effect”. The hypoxia-induced pulmonary hypertension result in [6] (mouse, in vivo) was “substantially ablated”. The pulmonary vasodilation result in [7] is on record as “selective pulmonary vasodilation”. The “pulmonary vasodilator response to inhaled NO” value in data set [3] (aerosolized form, lambs with PAH) is “augmented”. Moreover, in [8] (sildenafil 31 nM), the “Theoretical response T(x,y) based on an additive effect” value (“Theoretical response T(x,y) based” below) is listed as 0.27 pmol/mg and the “pmols of cGMP/mg protein produced P(x,y)” value came out at 0.27 pmols/mg. In data set [8] (sildenafil 125 nM), the “Theoretical response T(x,y) based” value is listed as 2.56 pmol/mg and the “pmols of cGMP/mg protein produced P(x,y)” value was 2.56 pmols/mg. Further, in [8] (sildenafil 500 nM), the “Theoretical response T(x,y) based” value is listed as 0.88 pmol/mg and the “pmols of cGMP/mg protein produced P(x,y)” value was 0.88 pmols/mg. Moreover, in data set [8] (sildenafil 2000 nM), the “Theoretical response T(x,y) based” value is recorded as 0.80 pmol/mg and the “pmols of cGMP/mg protein produced P(x,y)” value stood at 0.80 pmols/mg. For the same compound, in data set [9], the WHO functional class entry is “improved”, the “exercise capacity (6-minute walk test)” value was “improved”, the pulmonary arterial pressure entry is listed as “decreased” and the pulmonary vascular resistance result is reported as “decreased”.
For the compound `CCOC(=O)C1=C[C@]2(CC)CCCN3CCc4c(n1c1ccccc41)[C@@H]32` [vinpocetine], in data set [10], the NO-stimulated dilation result was “enhances” and the “basal cGMP or cAMP” value is reported as “little effect”.
